Where “and” joins values, the source holds several entries; their conditions need not be identical. Identical values can stand only once.
Tests used:
NUAK1 [1] = biological target: T1, NUAK1 (Homo sapiens, UniProt O60285); assay: NanoBRET target engagement assay, HEK293 cells; conditions: cell-based NanoBRET target engagement assay
T1 sequence (O60285 1-661): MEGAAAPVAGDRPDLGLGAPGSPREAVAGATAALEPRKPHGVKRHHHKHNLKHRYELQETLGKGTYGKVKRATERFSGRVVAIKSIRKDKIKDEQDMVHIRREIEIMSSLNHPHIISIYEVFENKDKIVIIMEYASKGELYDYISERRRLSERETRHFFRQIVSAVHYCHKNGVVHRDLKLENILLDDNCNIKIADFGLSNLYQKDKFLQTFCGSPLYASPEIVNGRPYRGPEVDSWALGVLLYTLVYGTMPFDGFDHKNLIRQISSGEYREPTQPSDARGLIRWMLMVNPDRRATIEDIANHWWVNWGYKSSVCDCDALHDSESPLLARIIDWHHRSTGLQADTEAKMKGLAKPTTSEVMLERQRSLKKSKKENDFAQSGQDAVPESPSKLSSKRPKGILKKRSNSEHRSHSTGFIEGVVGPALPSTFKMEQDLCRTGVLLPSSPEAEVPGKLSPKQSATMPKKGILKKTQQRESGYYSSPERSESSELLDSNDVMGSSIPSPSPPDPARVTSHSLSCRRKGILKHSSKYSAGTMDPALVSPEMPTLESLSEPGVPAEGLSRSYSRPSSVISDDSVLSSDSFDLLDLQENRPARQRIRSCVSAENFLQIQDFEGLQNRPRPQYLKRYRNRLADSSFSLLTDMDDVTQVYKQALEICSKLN
Experimental: NanoBRET® target engagement assay
The binding of compounds to NUAK1 in intact cells was assessed using an NanoBRET® TE Intracellular Kinase Assay (Promega N2501). HEK293 cells transiently transfected with NanoLuc®- NUAK1 Fusion Vector (Promega NV1831) were incubated with 10 nL K5 tracer (provided in the kit, Promega N2501) and 40 nL of the test compounds in 100% DMSO in a white low volume non-binding 384 assay plate (Grenier Bio One 784904) for 90 min at 37 °C. After incubation, followed by cooling for 15 min at room temperature, 4 µL of the Intracellular TE Nano-Glo ® Substrate/Inhibitor (Promega N2160) was added to each well. The plate was read using a Pherastar FSX plate reader (BMG Labtech).
Minimum number of 2 technical replicates per compound.
Activity pIC50 values and standard error of the mean (SEM) were estimated using a 4-parameter fit (Dotmatics). The SEM for all reported data was 0.2 or lower. See Experimental Procedures for minimum number of replicates per compound. Each experiment included a Standard compound whose pIC50 value was compared to a quality control chart. If the Standard pIC50 value fell outside the range of pIC50 +/-3 standard deviation, then the experiment was invalidated. […]

MARK3 = biological target: T2, MARK3 (Homo sapiens, UniProt P27448); assay: ADP-Glo biochemical assay MARK3; conditions: for MARK3 pIC50 / IC50: ADP-Glo assay; for IC50: read-out: MARK3 pIC50 (converted)
T2 construct: purchased MRC PPU
T2 sequence (P27448 whole entry): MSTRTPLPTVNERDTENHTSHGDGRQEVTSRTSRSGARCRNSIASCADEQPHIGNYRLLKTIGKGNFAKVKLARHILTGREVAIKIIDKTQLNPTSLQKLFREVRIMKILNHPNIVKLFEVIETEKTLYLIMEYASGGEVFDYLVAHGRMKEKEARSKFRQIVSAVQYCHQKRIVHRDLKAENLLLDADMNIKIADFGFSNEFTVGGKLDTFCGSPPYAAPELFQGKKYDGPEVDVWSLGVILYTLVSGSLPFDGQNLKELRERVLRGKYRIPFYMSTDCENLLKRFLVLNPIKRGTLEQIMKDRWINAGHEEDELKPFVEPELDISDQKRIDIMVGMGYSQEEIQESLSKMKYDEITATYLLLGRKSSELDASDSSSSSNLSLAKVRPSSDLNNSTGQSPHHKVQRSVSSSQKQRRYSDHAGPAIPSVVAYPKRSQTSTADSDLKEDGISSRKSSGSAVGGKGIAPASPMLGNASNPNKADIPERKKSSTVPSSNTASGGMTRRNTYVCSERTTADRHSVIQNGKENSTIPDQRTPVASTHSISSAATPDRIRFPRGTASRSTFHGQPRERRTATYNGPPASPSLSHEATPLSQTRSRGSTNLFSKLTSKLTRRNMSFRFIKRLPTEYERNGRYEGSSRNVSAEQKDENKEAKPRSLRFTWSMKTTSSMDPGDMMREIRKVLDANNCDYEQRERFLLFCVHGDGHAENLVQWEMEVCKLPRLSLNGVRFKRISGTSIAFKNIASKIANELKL
Experimental: (§1) Biological experimental procedures
(§2) ADP-Glo biochemical assays
(§3) Protein kinase activity in the presence of inhibitor compounds was determined by ADP-Glo assay (Promega), as previously described.1,2 Compounds were serialised using a Labcyte Echo 520 and transferred to 384 well plates (Greiner 784201) followed by the addition 5 µL of substrate containing peptide and ATP at Km in buffer (see Table S6). 5 µL of purified protein was added and the plate was incubated for 60 minutes at room temperature (ng/well; see Table S6). 3 µL of assay mixture was transferred using an Integra Viaflo384 into a white low volume plate (Greiner 781904) prior to the addition of 3 µL of ADP-Glo Reagent™ for a further 40 minute incubation. After incubation with 6 µL of Kinase Detection Reagent for 30 minutes, plate luminescence was read (Pherastar FSX, BMG […]
(§4) 30 mM HEPES pH7.4, 3 mM MgCl2, 3 mM MnCl2, 1.2 mM DTT, 0.01% CHAPS
(§5) Table S6: Conditions for protein kinase ADP-Glo assays
(§6) ATP AT Peptide Peptide Enzyme Enzyme Assay Buffe Min.
(§7) Protein conc. P Peptide name conc. supplier amount supplier vol. r na […]
(§8) NUAK1 µM µM Sakamototide 50 µM Merck 6.7 ng PPU 10 µl A 6
(§9) A µM µM Sakamototide 100 µM Merck 1 ng PPU 10 µl B 2 […]
(§10) aMin. n: Minimum number of technical replicates per compound

AMPKA α1β2γ1 [2] = biological target: T3, AMPKA α1β2γ1 (Homo sapiens, UniProt O43741+P54619+Q13131); assay: ADP-Glo biochemical assay AMPKA; conditions: ADP-Glo assay; read-out: AMPKA pIC50 (converted)
T3 construct: purchased MRC PPU
T3 sequence (Q13131 11-559 limits assumed): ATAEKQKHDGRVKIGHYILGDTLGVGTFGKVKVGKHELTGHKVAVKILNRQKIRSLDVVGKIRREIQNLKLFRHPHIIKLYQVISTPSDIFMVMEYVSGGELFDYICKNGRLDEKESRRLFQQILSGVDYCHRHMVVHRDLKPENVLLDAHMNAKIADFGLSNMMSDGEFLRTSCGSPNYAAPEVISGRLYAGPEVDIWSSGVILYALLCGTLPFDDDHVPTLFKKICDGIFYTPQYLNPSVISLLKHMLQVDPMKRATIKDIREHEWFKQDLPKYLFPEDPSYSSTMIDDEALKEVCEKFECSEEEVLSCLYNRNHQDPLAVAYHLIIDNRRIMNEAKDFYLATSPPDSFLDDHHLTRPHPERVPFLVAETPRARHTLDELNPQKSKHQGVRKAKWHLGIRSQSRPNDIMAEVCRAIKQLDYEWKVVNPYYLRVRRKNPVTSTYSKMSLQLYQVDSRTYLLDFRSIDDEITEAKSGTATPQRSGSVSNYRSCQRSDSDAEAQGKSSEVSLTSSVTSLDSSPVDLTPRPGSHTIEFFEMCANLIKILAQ
T3 sequence (O43741 whole entry partner): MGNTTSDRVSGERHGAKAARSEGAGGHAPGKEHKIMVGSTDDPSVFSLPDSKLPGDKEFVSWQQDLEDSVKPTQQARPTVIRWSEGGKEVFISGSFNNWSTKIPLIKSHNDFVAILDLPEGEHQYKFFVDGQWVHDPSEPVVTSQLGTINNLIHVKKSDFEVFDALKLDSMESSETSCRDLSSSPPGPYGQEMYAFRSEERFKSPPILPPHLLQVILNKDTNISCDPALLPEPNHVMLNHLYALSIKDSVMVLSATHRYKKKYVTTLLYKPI
T3 sequence (P54619 whole entry partner): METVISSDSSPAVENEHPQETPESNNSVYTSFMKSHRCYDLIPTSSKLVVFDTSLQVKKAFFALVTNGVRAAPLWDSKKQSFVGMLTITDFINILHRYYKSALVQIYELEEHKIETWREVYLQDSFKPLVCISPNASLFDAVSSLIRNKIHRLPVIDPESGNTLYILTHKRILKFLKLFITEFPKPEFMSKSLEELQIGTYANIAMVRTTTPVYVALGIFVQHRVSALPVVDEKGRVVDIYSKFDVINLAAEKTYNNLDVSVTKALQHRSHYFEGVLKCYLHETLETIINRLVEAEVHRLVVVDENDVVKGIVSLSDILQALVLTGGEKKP
Experimental: as §1, §2, §3, §4, §5, §6, §7, §8, §9, §10

AMPKA α1β2γ1 [3] = biological target: T4, AMPKA α1β2γ1 (Homo sapiens, UniProt Q13131); assay: ADP-Glo biochemical assay AMPKA; conditions: AMPKA IC50/NUAK1 IC50
T4 construct: purchased MRC PPU
T4 sequence (Q13131 11-559 limits assumed): as the sequence (Q13131 11-559 limits assumed) above
T4 sequence (O43741 whole entry partner): as the sequence (O43741 whole entry partner) above
T4 sequence (P54619 whole entry partner): as the sequence (P54619 whole entry partner) above
Experimental: as §1, §2, §3, §4, §5, §6, §7, §8, §9, §10

MARK1 = biological target: T5, MARK1 (Homo sapiens, UniProt Q9P0L2); assay: ADP-Glo biochemical assay MARK1; conditions: for IC50: ADP-Glo assay, read-out: MARK1 pIC50 (converted)
T5 construct: purchased MRC PPU
T5 sequence (Q9P0L2 whole entry): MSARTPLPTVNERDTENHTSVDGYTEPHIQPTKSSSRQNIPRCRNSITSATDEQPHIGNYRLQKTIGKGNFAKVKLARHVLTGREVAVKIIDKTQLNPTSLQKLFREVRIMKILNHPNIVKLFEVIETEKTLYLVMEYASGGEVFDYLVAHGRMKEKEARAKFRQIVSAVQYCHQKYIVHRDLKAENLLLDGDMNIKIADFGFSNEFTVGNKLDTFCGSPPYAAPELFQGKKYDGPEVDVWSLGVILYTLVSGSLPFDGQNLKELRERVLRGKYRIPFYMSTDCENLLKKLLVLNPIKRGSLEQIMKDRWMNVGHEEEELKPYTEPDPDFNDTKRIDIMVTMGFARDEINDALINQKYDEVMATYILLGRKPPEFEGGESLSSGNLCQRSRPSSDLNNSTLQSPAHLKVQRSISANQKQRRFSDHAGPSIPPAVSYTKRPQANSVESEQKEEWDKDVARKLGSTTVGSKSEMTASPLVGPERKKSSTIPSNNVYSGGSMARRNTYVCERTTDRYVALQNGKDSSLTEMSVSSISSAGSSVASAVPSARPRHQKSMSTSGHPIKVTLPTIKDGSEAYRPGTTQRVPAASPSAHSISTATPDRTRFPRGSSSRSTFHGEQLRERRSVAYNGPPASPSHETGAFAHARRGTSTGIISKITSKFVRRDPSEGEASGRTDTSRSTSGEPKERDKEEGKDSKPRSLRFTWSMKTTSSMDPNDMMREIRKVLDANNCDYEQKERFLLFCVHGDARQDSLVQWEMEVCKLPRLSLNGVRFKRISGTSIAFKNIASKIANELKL
Experimental: as §1, §2, §3, §4, §5, §6, §7, §8, §9, §10

MARK2 = biological target: T6, MARK2 (Homo sapiens, UniProt Q7KZI7); assay: ADP-Glo biochemical assay MARK2; conditions: for IC50: ADP-Glo assay, read-out: MARK2 pIC50 (converted)
T6 construct: purchased MRC PPU
T6 sequence (Q7KZI7 whole entry): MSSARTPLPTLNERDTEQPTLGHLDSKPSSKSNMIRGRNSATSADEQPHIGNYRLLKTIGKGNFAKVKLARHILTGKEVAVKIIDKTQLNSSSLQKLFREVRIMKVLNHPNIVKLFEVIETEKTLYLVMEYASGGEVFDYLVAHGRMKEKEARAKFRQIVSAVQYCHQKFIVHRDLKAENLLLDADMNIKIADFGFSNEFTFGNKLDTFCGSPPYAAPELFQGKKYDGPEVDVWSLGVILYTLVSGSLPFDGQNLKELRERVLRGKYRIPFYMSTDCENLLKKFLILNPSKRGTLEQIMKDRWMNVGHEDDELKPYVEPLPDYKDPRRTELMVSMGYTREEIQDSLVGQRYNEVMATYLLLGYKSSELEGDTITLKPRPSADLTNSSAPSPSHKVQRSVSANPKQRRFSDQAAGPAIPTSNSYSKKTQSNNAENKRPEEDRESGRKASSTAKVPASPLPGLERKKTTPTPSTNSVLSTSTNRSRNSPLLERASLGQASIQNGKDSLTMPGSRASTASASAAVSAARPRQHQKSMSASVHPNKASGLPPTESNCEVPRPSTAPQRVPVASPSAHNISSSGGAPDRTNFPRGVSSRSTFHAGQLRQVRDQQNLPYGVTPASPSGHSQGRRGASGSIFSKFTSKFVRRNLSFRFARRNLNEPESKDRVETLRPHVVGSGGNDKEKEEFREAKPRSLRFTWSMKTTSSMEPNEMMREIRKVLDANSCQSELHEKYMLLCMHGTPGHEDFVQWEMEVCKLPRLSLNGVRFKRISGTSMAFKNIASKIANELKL
Experimental: as §1, §2, §3, §4, §5, §6, §7, §8, §9, §10

MARK4 = biological target: T7, MARK4 (Homo sapiens, UniProt Q96L34); assay: ADP-Glo biochemical assay MARK4; conditions: for IC50: ADP-Glo assay, read-out: MARK4 pIC50 (converted)
T7 construct: purchased MRC PPU
T7 sequence (Q96L34 1-752): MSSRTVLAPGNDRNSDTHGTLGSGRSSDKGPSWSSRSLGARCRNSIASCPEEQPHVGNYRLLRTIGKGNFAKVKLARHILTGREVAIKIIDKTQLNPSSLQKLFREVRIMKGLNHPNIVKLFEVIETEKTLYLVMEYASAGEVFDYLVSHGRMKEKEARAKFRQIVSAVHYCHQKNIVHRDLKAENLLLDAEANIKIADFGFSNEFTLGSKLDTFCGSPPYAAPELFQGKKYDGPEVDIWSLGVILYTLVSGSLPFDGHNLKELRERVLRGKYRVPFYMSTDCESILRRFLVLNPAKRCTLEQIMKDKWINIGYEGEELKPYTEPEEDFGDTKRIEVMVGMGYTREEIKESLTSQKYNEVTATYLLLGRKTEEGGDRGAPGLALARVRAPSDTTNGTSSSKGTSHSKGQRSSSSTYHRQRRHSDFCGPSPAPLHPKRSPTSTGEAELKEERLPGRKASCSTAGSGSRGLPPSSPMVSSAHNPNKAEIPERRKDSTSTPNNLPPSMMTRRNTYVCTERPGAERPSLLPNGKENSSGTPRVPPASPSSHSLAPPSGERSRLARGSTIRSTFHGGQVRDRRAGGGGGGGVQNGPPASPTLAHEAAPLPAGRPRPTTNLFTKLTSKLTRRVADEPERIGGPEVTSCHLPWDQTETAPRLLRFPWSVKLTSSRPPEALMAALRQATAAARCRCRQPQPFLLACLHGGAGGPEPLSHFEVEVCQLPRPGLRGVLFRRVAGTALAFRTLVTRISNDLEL
Experimental: as §1, §2, §3, §4, §5, §6, §7, §8, §9, §10

[4] = Microsomal stability, mouse; format: in vitro ADME; conditions: mouse liver microsomes; read-out: MLM t1/2
Experimental: (§11) All single point assay determinations carried out in duplicate.
(§12) ADMET and PK experimental methods
(§13) Microsomal stability: analysis was performed by Cyprotex Discovery. […]

NUAK1 [5] = biological target: T1, NUAK1; assay: ADP-Glo biochemical assay NUAK1; design: purchased MRC PPU; conditions: ADP-Glo assay; for IC50: read-out: NUAK1 pIC50 (converted)
Experimental: as §1, §2, §3, §4, §5, §6, §7, §8, §9, §10

[6] = Microsomal stability, human; format: in vitro ADME; conditions: human liver microsomes; read-out: HLM t1/2
Experimental: as §11, §12, §13

Compound	NUAK1 cell TE pIC50 (NUAK1 [1])	MARK3 pIC50 (MARK3)	MARK3 Fold selectivity IC50/NUAK1 IC50 (MARK3)	NUAK1 pIC50 (NUAK1 [5])	further results
Cc1nc(Nc2cnn(C3CCNCC3)c2)nc2c1N(C)C(=O)c1cc3ccccc3cc1N2C [Compound 2, HTH-01-015, reference compound]	< 4.3				
Cc1cc(=O)n(C2CCCC2)c2nc(Nc3ccc(N4CCN(C(C)C)CC4)cc3)ncc12 [Compound 5]	6.6	6.5	71 fold	8.4	IC50 (AMPKA α1β2γ1 [2]): 1.07 µM; AMPKA Fold selectivity IC50/NUAK1 IC50 (AMPKA α1β2γ1 [3]): 240 fold; IC50 (MARK1): 3.8 µM; MARK1 Fold selectivity IC50/NUAK1 IC50 (MARK1): 851 fold; IC50 (MARK2): 5.62 µM; MARK2 Fold selectivity IC50/NUAK1 IC50 (MARK2): 1259 fold; IC50 (MARK4): 9.12 µM; MARK4 Fold selectivity IC50/NUAK1 IC50 (MARK4): 2042 fold; half-life at 0.75 h, 1 µM [4]: 2.2 min; IC50 (NUAK1 [5]): 0.00447 µM
CN1CCN(c2ccc(Nc3ncc4c(n3)N(C3CCCC3)C(=O)C(C)(C)O4)cc2)CC1 [Compound 6]	<4.6	5.9	8 fold	6.8	
COc1cc(N2CCN(C)CC2)ccc1Nc1ncc2c(C)cc(=O)n(C3CCCC3)c2n1 [Compound 12]		< 4.6	> 89 fold	6.6	
Cc1cc(=O)n(C2CCCC2)c2nc(Nc3ccc(N4CCNCC4)cn3)ncc12 [Compound 13]			> 11 fold		IC50 (MARK3): > 3.16 µM; IC50 (NUAK1 [5]): 0.316 µM
CC(=O)c1c(C)c2cnc(Nc3ccc(N4CCNCC4)cn3)nc2n(C2CCCC2)c1=O [Compound 14, Palbociclib, reference compound]					IC50 (NUAK1 [5]): 20 µM
COc1cc(Nc2ncc3c(C)cc(=O)n(C4CCCC4)c3n2)cc(OC)c1OC [Compound 15]	6.6	5.8	288 fold	8.21 and 8.2	IC50 (AMPKA α1β2γ1 [2]): > 75.9 µM; AMPKA Fold selectivity IC50/NUAK1 IC50 (AMPKA α1β2γ1 [3]): > 12000 fold
COc1cc(Nc2ncc3cc(C#N)c(=O)n(C4CCCC4)c3n2)cc(OC)c1OC [Compound 16, ON123790, reference compound]	inactive	< 4.6	> 1098 fold	7.7	NUAK1 cell TE pIC50 (NUAK1 [1]; listed as ON123790 (16)): <4.6; half-life at 0.75 h, 1 µM [4]: 1.9 min; half-life at 1 µM [6]: 13.6 min
COc1cc(Nc2ncc3cc(C#N)c(=O)n(C4CCCC4)c3n2)cc(OC)c1 [Compound 17]	<4.6	< 4.6	> 676 fold	7.4	
COc1nn(C)cc1Nc1ncc2c(C)cc(=O)n(C3CCCC3)c2n1 [Compound 18]		4.9	40 fold	6.5	
COc1cc(Nc2ncc3c(n2)N(C2CCCC2)C(=O)C(C)(C)O3)cc(OC)c1OC [Compound 19]	inactive	5.6	57 fold	7.4	IC50 (NUAK1 [1]; read-out: NUAK1 cell TE pIC50 (converted)): > 25.1 µM; half-life at 1 µM [4]: 1.4 min
COCCn1c(=O)cc(C)c2cnc(Nc3ccc(N4CC5CC(C4)N5C)cc3)nc21 [Compound 21]		5.2	35 fold	6.7	
Cc1cc(=O)n(CC(O)CO)c2nc(Nc3ccc(N4CC5CC(C4)N5C)cc3)ncc12 (stereo not drawn) [Compound 22]		5.7	20 fold	7.0	
CC(C)N1CCN(c2ccc(Nc3ncc4ccn(CC5CCOCC5)c4n3)cc2)CC1 [Compound 25]	7.0	5.59 and 5.6	1000 fold and 1005 fold	8.59 and 8.6	IC50 (AMPKA α1β2γ1 [2]): 2.69 µM; AMPKA Fold selectivity IC50/NUAK1 IC50 (AMPKA α1β2γ1 [3]): 1047 fold; IC50 (MARK1): 3.55 µM; MARK1 Fold selectivity IC50/NUAK1 IC50 (MARK1): 1380 fold; IC50 (MARK2): 7.08 µM; MARK2 Fold selectivity IC50/NUAK1 IC50 (MARK2): 2754 fold; IC50 (MARK4): 11.5 µM; MARK4 Fold selectivity IC50/NUAK1 IC50 (MARK4): 4467 fold; half-life at 1 µM [4]: 13.9 min
CN1C2CC1CN(c1ccc(Nc3ncc4ccn(CC5CCOC5)c4n3)cc1)C2 (stereo not drawn) [Compound 29]	6.4	5.3	641 fold	8.1	IC50 (AMPKA α1β2γ1 [2]): 5.62 µM; AMPKA Fold selectivity IC50/NUAK1 IC50 (AMPKA α1β2γ1 [3]): 708 fold; half-life at 1 µM [4]: 12.8 min
CN1C2CC1CN(c1ccc(Nc3ncc4ccn(C5CCOC5)c4n3)cc1)C2 (stereo not drawn) [Compound 30]			388 fold		IC50 (MARK3): 6.31 µM; IC50 (NUAK1 [5]): 0.0158 µM
CN1C2CC1CN(c1ccc(Nc3ncc4ccn(C5COC5)c4n3)cc1)C2 [Compound 31]		5.4	263 fold	7.8	

Reference: publication PMC11831560, “Development of the Pyrido[2,3-d]pyrimidin-7(8H)-one Scaffold toward Potent and Selective NUAK1 Inhibitors” (ACS Medicinal Chemistry Letters, 2025)
